Experimental data taken from publication PMC8658928, “Isolation of N-Ethyl-2-pyrrolidinone-Substituted Flavanols from White Tea Using Centrifugal Countercurrent Chromatography Off-Line ESI-MS Profiling and Semi-Preparative Liquid Chromatography” (Molecules, 2021).

Target: α-glucosidase
Assay: pNPG hydrolysis assay, absorbance at […] nm, pH […]
Format: biochemical

Row | Structure (SMILES) | IC50
1 | O=C(O[C@@H]1Cc2c(O)cc(O)cc2O[C@@H]1c1cc(O)c(O)c(O)c1)c1cc(O)c(O)c(O)c1 [EGCG] | 129 µM
2 | CCN1C(=O)CC[C@@H]1c1c(O)cc(O)c2c1O[C@H](c1cc(O)c(O)c(O)c1)[C@H](OC(=O)c1cc(O)c(O)c(O)c1)C2 [R-EGCG-cThea] | 70.3 µM
3 | CCN1C(=O)CC[C@H]1c1c(O)cc(O)c2c1O[C@H](c1cc(O)c(O)c(O)c1)[C@H](OC(=O)c1cc(O)c(O)c(O)c1)C2 [S-EGCG-cThea] | 162 µM
